Assay [1] deals with NT-3 growth factor receptor (Homo sapiens) (UniProt Q16288). Nature of the assay: Inhibition of human TRKC at 18.6 nM by HotSpot assay relative to control.
Assay [2] addresses Tyrosine-protein kinase Lyn (Homo sapiens) (UniProt P07948). Description: Inhibition of human LYN at 18.6 nM by HotSpot assay relative to control.
The target in assay [3] is BDNF/NT-3 growth factors receptor (Homo sapiens) (UniProt Q16620). Description: Inhibition of human TRKB at 18.6 nM by HotSpot assay relative to control.
Assay [4] has as its target T1, Ephrin type-A receptor 3 (Homo sapiens) (UniProt P29320).
T1 sequence (whole entry): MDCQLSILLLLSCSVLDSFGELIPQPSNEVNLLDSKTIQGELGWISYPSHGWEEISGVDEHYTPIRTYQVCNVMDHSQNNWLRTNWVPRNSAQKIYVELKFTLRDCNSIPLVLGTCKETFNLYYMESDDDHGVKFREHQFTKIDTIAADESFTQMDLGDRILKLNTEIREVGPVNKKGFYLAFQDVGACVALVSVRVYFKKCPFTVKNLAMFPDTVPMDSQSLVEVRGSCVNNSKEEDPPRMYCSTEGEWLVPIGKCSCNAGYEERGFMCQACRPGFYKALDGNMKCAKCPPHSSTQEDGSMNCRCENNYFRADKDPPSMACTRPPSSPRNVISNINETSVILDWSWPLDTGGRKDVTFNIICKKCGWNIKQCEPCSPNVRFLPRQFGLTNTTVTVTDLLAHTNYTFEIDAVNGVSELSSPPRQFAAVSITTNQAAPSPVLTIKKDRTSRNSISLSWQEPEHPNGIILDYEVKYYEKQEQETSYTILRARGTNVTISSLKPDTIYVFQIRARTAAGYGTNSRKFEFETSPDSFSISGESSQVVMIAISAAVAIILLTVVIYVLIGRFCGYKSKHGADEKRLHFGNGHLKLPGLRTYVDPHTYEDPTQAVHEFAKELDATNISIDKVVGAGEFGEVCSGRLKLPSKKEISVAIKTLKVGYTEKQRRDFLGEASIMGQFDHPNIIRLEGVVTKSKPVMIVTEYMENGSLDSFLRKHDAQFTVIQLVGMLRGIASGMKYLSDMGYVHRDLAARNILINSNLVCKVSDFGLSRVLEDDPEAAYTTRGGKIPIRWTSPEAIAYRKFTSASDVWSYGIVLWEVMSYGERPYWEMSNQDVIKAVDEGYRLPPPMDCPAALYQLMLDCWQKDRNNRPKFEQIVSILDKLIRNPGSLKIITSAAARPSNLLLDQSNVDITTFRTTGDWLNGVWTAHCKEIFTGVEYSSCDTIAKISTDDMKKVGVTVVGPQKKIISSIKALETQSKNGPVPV
Description: Inhibition of human EPHA3 at 18.6 nM by HotSpot assay relative to control.

For assay [5], the target named is RAC-alpha serine/threonine-protein kinase (Homo sapiens) (UniProt P31749). Description: Inhibition of human AKT1 at 18.6 nM by HotSpot assay relative to control.
The target in assay [6] is T2, Tyrosine-protein kinase Tec (Homo sapiens) (UniProt P42680).
T2 sequence (whole entry): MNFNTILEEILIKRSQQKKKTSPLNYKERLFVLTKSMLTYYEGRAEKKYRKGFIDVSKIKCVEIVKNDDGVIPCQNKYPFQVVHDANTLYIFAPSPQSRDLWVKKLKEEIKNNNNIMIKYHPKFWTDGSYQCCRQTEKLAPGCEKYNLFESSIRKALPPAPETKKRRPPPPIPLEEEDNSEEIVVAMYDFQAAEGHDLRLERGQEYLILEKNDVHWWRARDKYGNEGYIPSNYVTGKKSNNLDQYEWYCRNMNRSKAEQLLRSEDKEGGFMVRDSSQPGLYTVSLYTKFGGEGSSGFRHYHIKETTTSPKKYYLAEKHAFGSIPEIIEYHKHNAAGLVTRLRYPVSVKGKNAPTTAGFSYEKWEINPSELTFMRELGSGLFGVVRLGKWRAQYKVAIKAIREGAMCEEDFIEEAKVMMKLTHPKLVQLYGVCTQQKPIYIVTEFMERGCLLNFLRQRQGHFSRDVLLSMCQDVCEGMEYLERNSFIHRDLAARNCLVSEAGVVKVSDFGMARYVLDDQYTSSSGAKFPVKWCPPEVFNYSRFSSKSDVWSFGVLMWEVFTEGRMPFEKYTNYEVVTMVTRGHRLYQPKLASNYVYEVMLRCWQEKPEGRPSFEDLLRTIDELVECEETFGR
Nature of the assay: Inhibition of human TEC at 18.6 nM by HotSpot assay relative to control.

The target in assay [7] is T3, Ephrin type-A receptor 8 (Homo sapiens) (UniProt P29322).
T3 sequence (whole entry): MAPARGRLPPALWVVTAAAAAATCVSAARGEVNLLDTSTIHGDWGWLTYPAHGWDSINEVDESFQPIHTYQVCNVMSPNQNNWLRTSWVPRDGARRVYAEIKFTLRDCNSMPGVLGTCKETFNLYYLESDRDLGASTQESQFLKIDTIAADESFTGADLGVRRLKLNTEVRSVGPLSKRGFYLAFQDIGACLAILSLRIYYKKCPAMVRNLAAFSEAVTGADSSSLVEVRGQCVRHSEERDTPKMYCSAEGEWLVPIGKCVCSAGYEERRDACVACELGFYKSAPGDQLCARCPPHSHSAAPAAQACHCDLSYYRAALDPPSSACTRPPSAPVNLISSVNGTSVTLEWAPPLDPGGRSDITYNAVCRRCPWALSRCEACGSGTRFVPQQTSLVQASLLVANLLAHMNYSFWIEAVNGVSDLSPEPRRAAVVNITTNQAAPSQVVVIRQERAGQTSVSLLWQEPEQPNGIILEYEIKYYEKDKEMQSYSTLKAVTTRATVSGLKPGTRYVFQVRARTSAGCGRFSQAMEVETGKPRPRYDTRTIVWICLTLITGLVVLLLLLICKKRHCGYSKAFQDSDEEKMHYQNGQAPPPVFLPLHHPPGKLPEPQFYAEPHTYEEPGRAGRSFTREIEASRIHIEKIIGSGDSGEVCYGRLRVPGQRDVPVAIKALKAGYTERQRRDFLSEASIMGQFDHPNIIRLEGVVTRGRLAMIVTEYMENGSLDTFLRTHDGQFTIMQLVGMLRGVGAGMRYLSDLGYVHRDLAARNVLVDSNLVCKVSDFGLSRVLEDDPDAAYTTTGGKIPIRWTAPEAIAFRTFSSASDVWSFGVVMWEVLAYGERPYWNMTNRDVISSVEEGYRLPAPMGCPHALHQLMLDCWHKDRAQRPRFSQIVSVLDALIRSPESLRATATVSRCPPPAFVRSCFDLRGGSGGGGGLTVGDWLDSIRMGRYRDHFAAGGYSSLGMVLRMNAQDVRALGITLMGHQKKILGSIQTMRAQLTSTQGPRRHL
Description: Inhibition of human EPHA8 at 1.82 nM by HotSpot assay relative to control.

For assay [8], the target named is G protein-coupled receptor kinase 6 (Homo sapiens) (UniProt P43250). Nature of the assay: Inhibition of human GRK6 at 1.82 nM by HotSpot assay relative to control.
G protein-coupled receptor kinase 6 (Homo sapiens), sequence (P43250 whole entry, looked up): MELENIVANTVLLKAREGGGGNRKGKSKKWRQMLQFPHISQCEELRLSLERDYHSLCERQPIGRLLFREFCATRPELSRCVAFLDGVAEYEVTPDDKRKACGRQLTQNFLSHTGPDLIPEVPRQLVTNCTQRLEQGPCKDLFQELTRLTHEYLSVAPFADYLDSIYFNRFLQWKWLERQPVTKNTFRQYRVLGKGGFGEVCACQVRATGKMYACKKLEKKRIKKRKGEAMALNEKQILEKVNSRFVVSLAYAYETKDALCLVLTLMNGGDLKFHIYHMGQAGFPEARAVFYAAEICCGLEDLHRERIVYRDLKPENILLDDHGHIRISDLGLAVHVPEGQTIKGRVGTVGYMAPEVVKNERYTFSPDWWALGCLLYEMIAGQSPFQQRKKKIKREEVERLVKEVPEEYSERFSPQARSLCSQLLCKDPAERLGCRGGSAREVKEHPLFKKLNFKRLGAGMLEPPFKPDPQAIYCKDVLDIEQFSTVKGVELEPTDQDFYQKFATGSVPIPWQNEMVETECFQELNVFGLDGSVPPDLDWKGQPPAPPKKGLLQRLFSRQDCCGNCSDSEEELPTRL

NT-3 growth factor receptor (Homo sapiens), sequence (Q16288 32-839 limits assumed): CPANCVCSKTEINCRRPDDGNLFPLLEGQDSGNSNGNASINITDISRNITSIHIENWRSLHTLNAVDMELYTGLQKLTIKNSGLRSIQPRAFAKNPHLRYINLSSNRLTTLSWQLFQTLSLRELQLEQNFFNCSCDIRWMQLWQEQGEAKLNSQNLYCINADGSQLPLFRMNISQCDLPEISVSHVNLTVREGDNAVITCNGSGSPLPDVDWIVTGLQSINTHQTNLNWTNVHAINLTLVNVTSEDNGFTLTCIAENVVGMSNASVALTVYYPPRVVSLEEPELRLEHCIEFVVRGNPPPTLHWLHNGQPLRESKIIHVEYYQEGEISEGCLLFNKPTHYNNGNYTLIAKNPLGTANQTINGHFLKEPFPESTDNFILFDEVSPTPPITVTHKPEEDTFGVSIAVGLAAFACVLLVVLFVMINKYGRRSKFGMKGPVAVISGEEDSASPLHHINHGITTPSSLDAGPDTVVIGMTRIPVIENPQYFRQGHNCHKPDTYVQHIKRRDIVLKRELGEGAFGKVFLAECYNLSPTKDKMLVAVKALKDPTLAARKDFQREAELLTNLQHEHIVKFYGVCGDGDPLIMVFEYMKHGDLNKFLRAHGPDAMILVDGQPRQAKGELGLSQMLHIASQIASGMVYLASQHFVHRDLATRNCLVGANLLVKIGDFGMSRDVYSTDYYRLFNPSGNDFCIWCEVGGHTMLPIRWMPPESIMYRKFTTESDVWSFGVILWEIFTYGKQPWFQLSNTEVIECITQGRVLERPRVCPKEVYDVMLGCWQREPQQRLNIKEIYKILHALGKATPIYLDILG
BDNF/NT-3 growth factors receptor (Homo sapiens), sequence (Q16620 32-822 limits assumed): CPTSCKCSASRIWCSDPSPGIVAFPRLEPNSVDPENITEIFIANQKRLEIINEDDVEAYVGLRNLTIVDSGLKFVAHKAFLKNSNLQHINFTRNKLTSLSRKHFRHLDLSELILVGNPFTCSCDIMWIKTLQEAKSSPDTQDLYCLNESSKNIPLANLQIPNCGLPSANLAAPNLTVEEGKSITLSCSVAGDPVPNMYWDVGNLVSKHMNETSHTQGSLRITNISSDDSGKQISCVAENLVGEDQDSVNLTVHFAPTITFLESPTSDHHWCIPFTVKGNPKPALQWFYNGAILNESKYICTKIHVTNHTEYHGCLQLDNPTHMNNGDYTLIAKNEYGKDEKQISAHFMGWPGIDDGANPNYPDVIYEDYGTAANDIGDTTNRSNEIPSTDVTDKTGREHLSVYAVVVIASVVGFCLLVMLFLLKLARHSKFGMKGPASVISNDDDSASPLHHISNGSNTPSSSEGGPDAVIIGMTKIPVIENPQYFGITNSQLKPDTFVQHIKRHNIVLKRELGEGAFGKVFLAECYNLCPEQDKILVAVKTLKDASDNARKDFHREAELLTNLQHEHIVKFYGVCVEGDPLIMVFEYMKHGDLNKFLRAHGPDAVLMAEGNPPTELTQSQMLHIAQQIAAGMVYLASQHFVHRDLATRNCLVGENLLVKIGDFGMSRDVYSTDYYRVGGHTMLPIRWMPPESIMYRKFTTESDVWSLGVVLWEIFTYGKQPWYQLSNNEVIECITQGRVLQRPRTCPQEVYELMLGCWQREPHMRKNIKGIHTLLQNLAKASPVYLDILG
RAC-alpha serine/threonine-protein kinase (Homo sapiens), sequence (P31749 whole entry): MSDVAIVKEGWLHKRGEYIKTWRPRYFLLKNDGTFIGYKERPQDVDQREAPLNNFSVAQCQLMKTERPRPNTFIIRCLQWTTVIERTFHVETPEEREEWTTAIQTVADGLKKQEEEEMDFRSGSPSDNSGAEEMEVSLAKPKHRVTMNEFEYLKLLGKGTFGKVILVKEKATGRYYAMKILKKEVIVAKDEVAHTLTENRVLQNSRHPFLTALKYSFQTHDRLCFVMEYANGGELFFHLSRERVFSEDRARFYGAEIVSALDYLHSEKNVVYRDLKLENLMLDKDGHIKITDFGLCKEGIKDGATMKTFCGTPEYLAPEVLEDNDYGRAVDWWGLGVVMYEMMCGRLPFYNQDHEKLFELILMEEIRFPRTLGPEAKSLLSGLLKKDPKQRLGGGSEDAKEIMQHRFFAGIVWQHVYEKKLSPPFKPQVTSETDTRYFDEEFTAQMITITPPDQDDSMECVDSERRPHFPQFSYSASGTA
Tyrosine-protein kinase Lyn (Homo sapiens), sequence (P07948 2-512 limits assumed): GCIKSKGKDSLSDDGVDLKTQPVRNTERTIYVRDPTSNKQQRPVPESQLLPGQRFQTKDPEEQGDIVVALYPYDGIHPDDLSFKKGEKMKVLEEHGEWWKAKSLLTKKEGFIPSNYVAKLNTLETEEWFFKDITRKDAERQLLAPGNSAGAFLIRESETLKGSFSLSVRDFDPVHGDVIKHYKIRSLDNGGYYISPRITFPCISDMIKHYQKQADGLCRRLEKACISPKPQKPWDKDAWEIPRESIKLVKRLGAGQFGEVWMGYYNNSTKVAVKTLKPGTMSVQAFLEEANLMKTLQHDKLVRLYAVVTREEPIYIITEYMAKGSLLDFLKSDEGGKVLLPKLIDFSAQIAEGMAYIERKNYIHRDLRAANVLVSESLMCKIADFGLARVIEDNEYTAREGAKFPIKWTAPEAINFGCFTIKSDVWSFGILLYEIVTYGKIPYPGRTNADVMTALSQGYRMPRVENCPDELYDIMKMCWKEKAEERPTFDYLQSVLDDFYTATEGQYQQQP

On to `C[C@]1(O)C[C@@H](c2nc(-c3ccc4ccc(-c5ccccc5)nc4c3)c3c(N)nccn32)C1`, for which the inhibition in assay [1] is 0.03%; in assay [2] it was -0.99%; in assay [3], -7.44%; in assay [4] it was 2.95%; in assay [5] it was -3.01%; in assay [6] it was 2.21%.

Turning to `C[C@@]1(C(=O)Nc2ccc(F)nc2)CCCN1c1nc(Nc2cc(C3CC3)n[nH]2)c2cccn2n1`, the inhibition in assay [7] is -4.62%; in assay [8], 2.92%.

Source of the values: ChEMBL document CHEMBL5653615 (J Biol Chem, 2013).
